Data on 2 compounds can be found in patent publication US10881599B2, “Whitening composition including novel kaempferol-based compound derived from post-fermented tea” (AMOREPACIFIC CORPORATION, priority 2017, dated 2021).

One assay deals with mushroom tyrosinase. Put plainly: Tyrosinase activity-inhibitory effect. The following applies: L-tyrosine, 20 minutes at 37° C., absorbance at 490 nm. It is filed as biochemical. As to the method:
The tyrosinase activity-inhibitory effect of new material 33 was evaluated. Specifically, tyrosinase and tyrosine derived from mushrooms were obtained from Sigma Chemical. […] Tyrosinase activity was assessed by measuring the absorbance at 490 nm using a microplate reader (Bio-Rad 3550, Richmond, Calif., U.S.A.) after an enzyme reaction for 20 minutes at 37° C.

For a further assay, the system named is Mel-Ab cell line. Put plainly: Melanin production-inhibitory effect (Dooley's method). As to conditions: Mel-Ab cells, melanin after 5 days, absorbance at 400 nm. It counts as cell-based, C57BL/6.

As to `OC[C@H]1O[C@@H](Oc2ccc(O)cc2)[C@H](O)[C@@H](O)[C@@H]1O` [Arbutin, reference compound], the “Tyrosinase activity-inhibitory effect IC50” value on mushroom tyrosinase is listed as 149 ppm.

`O=c1cc(CO)occ1O` [Kojic acid, reference compound]: in the assay with Mel-Ab cell line, the “Melanin production-inhibitory effect IC50” value was found to be 39.36 ppm.
